Structures can show the parent of a compound that is named as a salt.
Assays:
[1] = molecular target: T1, HER2 intracellular domain (Homo sapiens, UniProt P04626); assay: Determination of HER2 kinase inhibitory activity; type: biochemical; settings: test compound at 1.0 μM, poly-Glu:Tyr (4:1) substrate, [γ-32P]ATP, 25° C. 10 min; for inhibition at 1 µM: read-out: Inhibitory rate (%) at 1.0 μM
T1 construct: made in house; host or cells: SF-21 insect cells infected with recombinant baculovirus BAC-HER2 (pFASTBAC1)
T1 sequence (P04626 676-1255 limits assumed): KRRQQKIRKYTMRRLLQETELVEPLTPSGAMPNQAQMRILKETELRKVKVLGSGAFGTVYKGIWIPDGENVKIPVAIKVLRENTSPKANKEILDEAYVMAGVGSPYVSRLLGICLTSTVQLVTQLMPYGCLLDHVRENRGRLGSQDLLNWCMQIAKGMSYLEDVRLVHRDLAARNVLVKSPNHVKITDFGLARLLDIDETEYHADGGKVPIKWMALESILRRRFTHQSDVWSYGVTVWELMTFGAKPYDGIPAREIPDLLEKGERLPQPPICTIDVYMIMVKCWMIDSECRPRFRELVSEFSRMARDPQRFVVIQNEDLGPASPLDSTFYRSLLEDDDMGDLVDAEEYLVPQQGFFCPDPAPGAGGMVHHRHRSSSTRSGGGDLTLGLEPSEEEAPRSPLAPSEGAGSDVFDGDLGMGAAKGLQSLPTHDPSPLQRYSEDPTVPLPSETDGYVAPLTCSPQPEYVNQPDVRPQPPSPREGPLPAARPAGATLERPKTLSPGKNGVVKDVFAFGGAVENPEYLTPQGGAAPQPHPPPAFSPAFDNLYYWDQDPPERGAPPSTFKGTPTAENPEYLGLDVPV
Method: Human HER2 gene was cloned by RT-PCR using total RNA prepared from MCF7 cells as a template. The primer used for RT-PCR was prepared from nucleotide sequence (Genbank Accession No. M11730) information of HER2 gene by adding a nucleotide sequence encoding DYKDDDD peptide and a restriction enzyme recognition sequence to a nucleotide sequence (2176-3918 of Genbank Accession No. M11730) encoding the HER2 intracellular domain region, so that the protein contains an N-terminal DYKDDDD peptide tag. The primer nucleotide sequence is shown below.
The RT reaction was conducted using SuperScript First-Strand Synthesis System for RT-PCR (Invitrogen) and the PCR reaction was conducted using a KOD-plus kit (TOYOBO). The obtained PCR product was electrophoresed on agarose gel (1%), the DNA fragment amplified by PCR was recovered from the gel, and then digested with restriction enzymes Sal I and Sph I. The DNA treated with the restriction enzymes was electrophoresed on agarose gel (1%), and the obtained DNA fragment was recovered and ligated to plasmid pFASTBAC1 (Invitrogen) digested with restriction enzymes Sal I and Sph I to give expression plasmid pFB-HER2. The nucleotide sequence of the insertion fragment was confirmed and found to be identical with the nucleotide sequence (2176-3918 of Genbank Accession M11730) of HER2 intracellular domain. Furthermore, using BAC-TO-BAC Baculovirus Expression System (Invitrogen), recombinant baculovirus BAC-HER2 was prepared.
SF-21 cells were sown at 1×10^6 cells/mL to Sf-900II SFM medium (1 L, Invitrogen) containing 10% fetal bovine serum (trace), 50 mg/L gentamicin (Invitrogen) and 0.1% Pluronic F-68 (Invitrogen), and shaking culture was performed using a 2 L volume Erlenmeyer flask at 27° C., 100 rpm. After culturing for 24 hr, recombinant baculovirus BAC-HER2 (13.4 mL) was added, and the mixture was further cultured for 3 days. The culture medium was centrifuged at 2,000 rpm for 5 min. to give virus-infected cells. The infected cells were washed with a phosphate buffered saline (Invitrogen), centrifuged under the same conditions, and the cells were preserved at −80° C. The cryopreserved cells were thawed in ice, suspended in buffer A (50 mM Tris buffer (30 mL, pH 7.4) containing 20% glycerol, 0.15 M NaCl) supplemented with Complete Protease Inhibitor (Boehringer), and ruptured 3 times with a Polytron homogenizer (Kinematica) at 20,000 rpm for 30 sec. The rupture medium was clarified by centrifugation at 40,000 rpm for 30 min. and filtered with a 0.45 μm filter. The filtrate was passed through a column packed with Anti-FLAG M2 Affinity Gel (4 mL, Sigma) at a flow rate of about 0.5 mL/min. The column was washed with buffer A, and eluted with buffer A containing 100 μg/mL of FLAG peptide. The eluate was concentrated with Vivaspin 20 (Vivascience) having a molecular weight cut off of 30K. The concentrate was purified by gel filtration using Hi Load Superdex 200pg 16/60 (Amersham Bioscience) equilibrated with buffer A. The fractions containing HER2 intracellular domain were collected, glycerol was added to the final concentration of 50% and cryopreserved at −80° C.
A test compound dissolved in dimethyl sulfoxide (DMSO) was diluted with a buffer for kinase reaction (50 mM Tris-HCl (pH7.5), 5 mM MgCl2, 5 mM MnCl2, 2 mM dithiothreitol, 0.01% Tween-20). To this compound solution (10 μL) was added a buffer for kinase reaction (20 μL) containing 5 μg/mL of HER2 intracellular domain obtained in Experimental Example 1B and 12.5 μg/mL of polypeptide substrate poly-Glu:Tyr (4:1) (Sigma). To the obtained mixture was added 20 μL of ATP solution (1.25 μM ATP, 0.05 μCi [γ-^32P]ATP), the mixture was allowed to react at 25° C. for 10 min. and the reaction was quenched with 50 μL of 20% TCA solution. The reaction solution was allowed to stand at 4° C. for 20 min., and the acid insoluble fraction was transferred to GF/C filter (PerkinElmer) using cell harvester (PerkinElmer) and washed with 250 mM phosphoric acid solution. […]

[2] = tested on: human breast cancer cell BT-474; assay: Inhibitory action on breast cancer cell BT-474 proliferation in vitro; type: cell-based; settings: 120 h, BT-474 cells, cultured 5 days with compound, SRB staining of cell protein
Method: A suspension of human breast cancer cell. BT-474 (100 μl (6,000 cells)) were seeded to attach in a 96-well microplate and cultured in an incubator (37° C., 5% carbon dioxide). On the following day, 100 μl of a solution of each test compound previously diluted serially in 2-fold, was added to give indicated dose, and the cells were cultured for 5 days. After the culture medium containing the test compound was removed, the cells were washed and fixed with 50% trichloroacetic acid, after which a 0.4% (w/v) SRB solution (dissolved in 1% acetic acid) was added to stain the cell protein (Skehan et al., Journal of the National Cancer Institute, Vol. 82, pp. 1107-1112, 1990). After washing with a 1% acetic acid solution, 100 μl of Tris solution (10 mM) was added to extract the pigment and the absorbance was measured at a wavelength of 550 nm to quantify the amount of cells as protein content. Taking as 100% the protein content for the control group, which received no test compound solution, the ratio of the residual protein content for, each treatment group was determined, and the compound concentration required to achieve 50% suppression of the residual cell content relative to the control (IC50 value) was calculated.

Structure (SMILES)	inhibition at 1 µM [1] [%]	IC50 [2] [nM]	Inhibitory rate (%) at 1.0 μM [1] [%]
CC(C)(C)NC(=O)c1cccc(Cn2ncc3cc(Nc4ncnc5ccn(CCO)c45)ccc32)c1 [Example G-14, N-(tert-butyl)-3-[(5-{[5-(2-hydroxyethyl)-5H-pyrrolo[3,2-d]pyrimidin-4-yl]amino}-1H-indazol-1-yl)methyl]benzamide]	100		
CC(C)(C(=O)NCCn1ccc2ncnc(Nc3ccc(Oc4cccc(Cl)c4)c(Cl)c3)c21)S(C)(=O)=O [Example A-1, N-[2-(4-{[3-chloro-4-(3-chlorophenoxy)phenyl]amino}-5H-pyrrolo[3,2-d]pyrimidin-5-yl)ethyl]-2-methyl-2-(methylsulfonyl)propanamide]	98	< 100	
OCCOCCn1ccc2ncnc(Nc3cnc(Oc4cccc(C(F)(F)F)c4)c(Cl)c3)c21 [Example B-1, 2-{2-[4-({5-chloro-6-[3-(trifluoromethyl)phenoxy]pyridin-3-yl}amino)-5H-pyrrolo[3,2-d]pyrimidin-5-yl]ethoxy}ethanol]	99		
CC(C)(O)CC(=O)NCCn1ccc2ncnc(Nc3ccc4c(cnn4Cc4cccc(F)c4)c3)c21 [Example G-5, N-[2-(4-{[1-(3-fluorobenzyl)-1H-indazol-5-yl]amino}-5H-pyrrolo[3,2-d]pyrimidin-5-yl)ethyl]-3-hydroxy-3-methylbutanamide]	93	< 100	
CS(=O)(=O)CC(=O)NCCn1ccc2ncnc(Nc3ccc(Oc4cccc(OCC5CC5)c4)c(Cl)c3)c21 [Example C-97, N-{2-[4-({3-chloro-4-[3-(cyclopropylmethoxy)phenoxy]phenyl}amino)-5H-pyrrolo[3,2-d]pyrimidin-5-yl]ethyl}-2-(methylsulfonyl)acetamide hydrochloride]		< 100	
CC(C)(C(=O)NCCn1ccc2ncnc(Nc3ccc(Oc4cccc(Cl)c4)c(Cl)c3)c21)S(C)(=O)=O.Cc1ccc(S(=O)(=O)O)cc1 [Example A-15, N-[2-(4-{[3-chloro-4-(3-chlorophenoxy)phenyl]amino}-5H-pyrrolo[3,2-d]pyrimidin-5-yl)ethyl]-2-methyl-2-(methylsulfonyl)propanamide p-toluenesulfonate]			99
CC(C)(C)CC(=O)c1cccc(Oc2ccc(Nc3ncnc4ccn(CCO)c34)cc2Cl)c1 [Example E-22, 1-[3-(2-chloro-4-{[5-(2-hydroxyethyl)-5H-pyrrolo[3,2-d]pyrimidin-4-yl]amino}phenoxy)phenyl]-3,3-dimethylbutan-1-one]	99		
Cc1cc(Nc2ncnc3ccn(CCNC(=O)CS(C)(=O)=O)c23)ccc1Oc1cccc(OCC(F)(F)F)c1 [Example C-116, 2-(methylsulfonyl)-N-{2-[4-({3-methyl-4-[3-(2,2,2-trifluoroethoxy)phenoxy]phenyl}amino)-5H-pyrrolo[3,2-d]pyrimidin-5-yl]ethyl}acetamide hydrochloride]		< 100	
CC(C)(C)NC(=O)Cc1cccc(Oc2ccc(Nc3ncnc4ccn(CCO)c34)cc2Cl)c1 [Example C-89, N-(tert-butyl)-2-[3-(2-chloro-4-{[5-(2-hydroxyethyl)-5H-pyrrolo[3,2-d]pyrimidin-4-yl]amino}phenoxy)phenyl]acetamide]	100		
CC(C)(C)NC(=O)c1cccc(Oc2ccc(Nc3ncnc4ccn(CCO)c34)cc2Cl)c1 [Example C-26, N-(tert-butyl)-3-(2-chloro-4-{[5-(2-hydroxyethyl)-5H-pyrrolo[3,2-d]pyrimidin-4-yl]amino}phenoxy)benzamide]	98		
O=C(Nc1cccc(Oc2ccc(Nc3ncnc4ccn(CCOCCO)c34)cc2Cl)c1)C1CC1 [Example C-45, N-{3-[2-chloro-4-({5-[2-(2-hydroxyethoxy)ethyl]-5H-pyrrolo[3,2-d]pyrimidin-4-yl}amino)phenoxy]phenyl}cyclopropanecarboxamide]	97	< 100	
